In patent publication US20160031909A1, “PORPHYRAZINE OPTICAL AND DUAL OPTICAL/ MR CONTRAST AND THERAPEUTIC AGENTS” (HOFFMAN/BARRETT, LLC, priority 2013, published 2016):
Entries after “also recorded” stand apart in the source; their conditions may differ. Read-outs that look alike come from different tables or passages of the source.

What was measured:
[1] = Octanol-water partition coefficients by ICP-MS; type: physicochemical; details: 1:1 water:1-octanol, 48 hours, Gd by ICP-MS
Procedure: Octanol-water partition coefficients (log P) were measured by ICP-MS to determine the hydrophilicity of the Pz-Gd(III) conjugates (4d, 18). The hydrophilicity of a molecule dictates cellular permeability where a balance in amphiphilicity is desired for ease of aqueous administration and maximum cellular uptake (19). Cu-Pz-Gd(III) is slightly more hydrophobic than Zn-Pz-Gd(III) and both conjugates are more hydrophobic than DOTA-Gd(III).
DOTA-Gd(I I I), Zn-Pz-Gd(III), and Cu-Pz-Gd(III) (0.5 mg) were dissolved in 1 mL of a 1:1 mixture of water:1-octanol, respectively. After shaking for 30 seconds, these tubes were placed on a rotator for gentle mixing to equilibrate for 48 hours. Gd(III) concentration in each layer was determined by ICP-MS. Partition coefficients were calculated from the equation log P=log(Co/Cw), where log P is the logarithm of the partition coefficient, Co is the concentration of Gd in the 1-octanol layer, and Cw is the concentration of Gd in the water layer.

[2] = test system: MDA-MB-231 orthotopic breast tumor; assay: In vivo tumor MRI in orthotopic breast tumor model; set-up: species or system athymic nude mice; details: 0-225 min after tail vein injection; Cu-Pz-Gd(III) 450 nmol (50 mg/kg), DOTA-Gd(III) 900 nmol (25 mg/kg)
Procedure: Cu-Pz-Gd(III) was examined as a contrast agent in vivo in an orthotopic breast tumor model in athymic nude mice. MDA-MB-231 breast tumor cells expressing mCherry fluorescent protein were implanted in the mammary fat pad of mice and tumors were allowed to grow to about 5 mm in diameter at which time mice were treated with 450 nmol (50 mg/kg) Cu-Pz-Gd(III) together with saline treated control mice (FIG. 3A).
In a separate experiment focusing only on short time points (0-225 min), groups of mice (n=3) were treated with Cu-Pz-Gd(III) (450 nmol, 50 mg/kg), DOTA-Gd(I I I) (900 nmol, 25 mg/kg), and saline as a negative control (FIG. 4). Mice were imaged continuously after tail vein injections. […] Regions of interest (ROIs) were defined outside the periphery of tumors, at the inner rim, and at the center.
MDA-MB-231 cells (1×10^6) expressing mCherry fluorescent protein were inoculated subcutaneously (1:1 v/v matrigel:PBS) on the right mammary fat pad. Cells were maintained in DMEM media supplemented with 10% FBS prior to inoculation. The athymic nude mice, Crl:NU(NCr)-Foxnl^nm, were purchased from Charles River, Portage at 5-6 weeks old and 16-18 gram were allowed to acclimate for 5 days. One week post inoculation, each animal was screened for mCherry fluorescence wavelength using the IVIS small animal fluorescence imaging system to verify presence of the tumor.
Mice were anesthetized in an induction chamber with 3% inhaled isoflurane in oxygen, then transferred to an imaging bed with circulating warm water heating system, MRI compatible respiratory monitoring (SA Instruments, Stony Brook, N.Y.) and 1-2% isoflurane delivered via nosecone to maintain a surgical plane of anesthesia with respiratory rate at 90-100 breaths/min Mice were imaged prone with the tumor centered in a 40 mm diameter quadrature volume coil (Bruker Biospec, Billerica, Mass.). An AutoPac automated positioning system was used to reproducibly center the animals in the MRI system.
Mice were positioned in the MRI scanner as described above and localizer images were acquired. T1 maps were acquired using a FAIR-RARE non-selective inversion recovery sequence with static TR (18,000 ms) and TE (6.1 ms), and variable TI (30.5, 100, 200, 300, 500, 600, 700, 800, 900, 1000, 1100, 1200, 1300, 1400, 1600, 2000, 2500, 3000, 3500, 4000, 4500, 5000, and 6000 ms). Imaging parameters were as follows: field of view (FOV)=40×20 mm^2, matrix size(MTX)=512×133 pixels, number of slices=1, slice thickness=1.0 mm, and 1 average (total scan time=5 m 26 s).
Images were acquired at baseline, and 4, 24, and 48 hours after injection of 150 μL of imaging agent via the tail vein. One control animal was injected with saline; the remaining 9 animals were injected with 450 nmol Cu-Pz-Gd(III). Three animals were sacrificed after 4 hour, 24 hour, and 48 hour timepoints, respectively; the organs were collected for ICP-MS (described below) to measure biodistribution.
Mice were positioned in the MRI scanner as described above and localizer images were acquired. To improve signal to noise ratio, reduce respiratory artifacts, and increase tumor coverage, for this study we used a multi slice T1 map acquired using a variable repetition time saturation recovery sequence (RARE-VTR) with static TE (8.2 ms) and variable TR (175, 300, 600, 800, 1200, 2000, 4000 ms). Imaging parameters were as follows: FOV=10×7.5 mm, MTX=80×60, number of axial slices=5, slice thickness=1.0 mm, and 1 average (total scan time=6 min 48 sec). […]

[3] = monomeric DOTA-Gd(III), shown for comparison (ref 17), cited from earlier work
[4] = Relaxation time measurements (longitudinal relaxivity r1); type: physicochemical; details: water, 1.41 T (60 MHz), 37° C.
Text: The efficiency of a contrast agent in reducing the longitudinal relaxation time of water protons is defined in terms as relaxivity (mM^−1 s^−1) (14). It has been predicted by Solomon-Bloembergen-Morgan theory that a slow molecule tumbling of an MRI agent causes an increase in rotational correlation time, Tr, which in turn results in increase in relaxivity (14, 15). A common approach to increase relaxivity by slowing down the molecular tumbling is to attach Gd(III) complexes to a macromolecule through rigid linkages (12,16). The relaxivity of the monomeric DOTA-Gd(III) (DOTA is 1,4,7,10-tetraazacyclododecane-N,N,N″,N″-tetraacetic acid) used in the clinic is shown for comparison (17). […] Both the Zn-Pz-Gd(III) and Cu-Pz-Gd(III) had higher longitudinal relaxivity than DOTAGd(III).
Solutions of M-Pz-Gd(III) (M=Zn, Cu) conjugates were dissolved in 500 μL of filtered, deionized H20 (18.2 MΩ·cm) for T1 acquisition. Relaxation times were measured on a Bruker mq60 NMRanalyzer equipped with Minispec v2.51 Rev.00/NT software (Bruker Biospin, Billerica, Mass., USA) operating at 1.41 T (60 MHz) and 37° C. T1 relaxation times were measured using an inversion recovery pulse sequence (T1—ir_mb) using the following parameters: 4 scans per point, 10 data points for fitting, mono-exponential curve fitting, phase cycling, 10 ms first pulse separation, and a recycle delay and final pulse separation≧5 T1. The gadolinium concentrations of each solution were determined using ICP-MS. The inverse of the longitudinal relaxation time (1/ T1, s^−1) was plotted against gadolinium concentration (mM) and fitted to a straight line with an R^2>0.99. The slope of the fitted line was recorded as the relaxivity, r1.

[5] = Water solubility; type: physicochemical
Procedure: The pz platform is diol pz 285, which was prepared and activated for nucleophilic substitution by arenesulfonylation to produce bis-tosylate pz 286 as previously described (13). Subsequent nucleophilic substitution of pz 286 with excess sodium azide gave diazide pz 288, which was suitable for conjugation via cycloaddition reactions with the alkyne-functionalized Gd595. (Scheme 1). The use of catalytic copper(II) sulfate in this conjugation reaction partially metallates the pz core. To address this issue, pz 288 either was metallated with ZnCl2 prior to reaction with the alkyne or a stoichiometric amount of the […] catalyst was used to ensure that the pz core was completely cuprated. Standard cycloaddition reaction conditions were subsequently used to conjugate metallated pz diazides with Gd595 to produce Zn-Pz-Gd(III) and Cu-Pz-Gd(III) conjugates, which were isolated by preparative HPLC in 52% and 57% isolated yields, respectively. Trace amounts of Zn-Pz-Gd(III) were transmetallated to Cu-Pz-Gd(III), but this small amount was removed during purification.

Molecule	log P [1]	tumor T1 over time [2]	Molecular r1 ([3]; 1 Gd(III))	Ionic r1 [3]	Ionic r1 ([4]; per Gd(III))	Molecular r1 ([4]; per molecule (2 Gd(III)))	water solubility [5]
O=C([O-])CN1CCN(CC(=O)[O-])CCN(CC(=O)O)CCN(CC(=O)[O-])CC1.[Gd+3] [DOTA-Gd(III), reference compound]	−3.42	dips transiently but returns quickly to baseline; also recorded: enters the tumor, but is cleared relatively rapidly; also recorded: initial decrease in tumor T1 followed by recovery of signal	3.1 mM^−1 S^−1	3.1 mM^−1 S^−1			
Zn[Pz(C17H27N5O7Gd)2]. Pz=18,21-bis(2-(1H-1,2,3-triazole-4-yl) ethoxy)-tris-[1,4-dioxino[g,l,q](2R,3R)-2,3-dimethoxy-2,3-dimethyll 25H,27H-benzo[b]porphyrazine; C17H27N5O7Gd=N-methyl-2-aminoacetamide-4,7,10-tris(carboxymethyl)-1,4,7,10-tetraazacyclododecylgadolinium(III)) [Zn-Pz-Gd(III)]	−3.13				6.9 mM^−1 S^−1	13.8 mM^−1 S^−1	freely water soluble
